IC50 data for 45 molecules are collected here from ChEMBL document CHEMBL1140746, “Cdc7 kinase inhibitors: pyrrolopyridinones as potential antitumor agents. 1. Synthesis and structure-activity relationships” (J Med Chem, 2008).

Where only a bound is given, the exact number is not on record here.

One experiment deals with A2780. In words: Antiproliferative activity against human A2780 cells after 72 hrs. Format: functional, cell-based. The note with it: A2780, 72 h.
For `Nc1ncc(Br)c(-c2cc3c([nH]2)CCNC3=O)n1`, the IC50 turned out to be 800 nM.
As for `Nc1cc(-c2cc3c([nH]2)CCNC3=O)ccn1`, the IC50 was > 10000 nM.
`O=C1NCc2[nH]c(-c3ccncc3)cc21` displayed an IC50 of 4700 nM.
`O=C1NCCc2[nH]c(-c3ccncn3)cc21`: the 50% inhibitory concentration (IC50) was 5500 nM.
As to `O=C1NCCc2[nH]c(-c3ccnc4[nH]ccc34)cc21`, the 50% inhibitory concentration (IC50) was > 10000 nM.
Same read-out and setting: in the case of `O=C1NCCc2[nH]c(-c3ccncc3F)cc21` it was 200 nM.
`O=C1NCCc2[nH]c3c(ccc4cnccc43)c21`: the IC50 was 100 nM.

The target of the next experiment is Cell division cycle 7-related protein kinase (Homo sapiens, UniProt O00311).
Cell division cycle 7-related protein kinase, sequence (O00311 whole entry): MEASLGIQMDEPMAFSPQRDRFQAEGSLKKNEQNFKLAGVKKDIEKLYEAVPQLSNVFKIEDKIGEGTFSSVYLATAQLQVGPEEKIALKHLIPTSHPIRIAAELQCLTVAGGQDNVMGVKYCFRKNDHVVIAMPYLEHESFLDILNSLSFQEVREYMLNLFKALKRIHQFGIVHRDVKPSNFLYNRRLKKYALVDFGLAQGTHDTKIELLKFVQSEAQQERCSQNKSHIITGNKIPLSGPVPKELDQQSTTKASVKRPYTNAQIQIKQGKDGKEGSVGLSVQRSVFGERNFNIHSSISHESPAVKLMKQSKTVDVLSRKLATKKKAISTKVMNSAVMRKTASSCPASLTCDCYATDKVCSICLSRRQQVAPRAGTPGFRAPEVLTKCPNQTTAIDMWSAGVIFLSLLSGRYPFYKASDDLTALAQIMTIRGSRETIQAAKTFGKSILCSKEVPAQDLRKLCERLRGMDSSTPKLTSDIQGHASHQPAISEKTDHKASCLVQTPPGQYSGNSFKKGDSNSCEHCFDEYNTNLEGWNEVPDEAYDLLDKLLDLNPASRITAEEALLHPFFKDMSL
Details: not given
The molecule `CC(=O)Nc1nccc(-c2cc3c([nH]2)CCNC3=O)n1` had an IC50 of 323 nM.
With `CC(C)n1c(-c2ccnc(N)n2)cc2c1CCNC2=O`, the IC50 was found to be 42 nM.
Molecule `Nc1ncc(Br)c(-c2cc3c([nH]2)CCNC3=O)n1` gave an IC50 of 4 nM.
`CCn1c(-c2ccncc2)cc2c1CCNC2=O` registered a half-maximal inhibitory concentration (IC50) of 67 nM.
Molecule `Nc1nccc(-c2cc3c(n2CC2CC2)CCNC3=O)n1` showed a 50% inhibitory concentration (IC50) of 4 nM.
Still for that read-out and setting: in the case of `O=C1NCCc2[nH]c(-c3ccnc(NCc4ccccc4)n3)cc21` it was 220 nM; in that of `Cn1c(-c2ccnc(N)n2)cc2c1CCNC2=O`, 88 nM; in that of `Nc1nccc(-c2cc3c(n2CCO)CCNC3=O)n1`, 138 nM.
Take `Nc1nccc(-c2cc3c(n2C2CCCCC2)CCNC3=O)n1`: the half-maximal inhibitory concentration (IC50) was > 5000 nM.
In the case of `CC(C)Cn1c(-c2ccnc(N)n2)cc2c1CCNC2=O`, the IC50 amounted to 13 nM.
As to `Nc1cc(-c2cc3c([nH]2)CCNC3=O)ccn1`, half-maximal inhibition (IC50) required 28 nM.
For the molecule `O=C1NCCc2c1cc(-c1ccncc1)n2CC(F)(F)F`, the IC50 was 160 nM.
Still for that read-out and setting: as for `O=C1NCCn2nc(-c3ccncc3)cc21`, the figure is 210 nM; as for `Nc1nccc(-c2c[nH]c3c2C(=O)NCC3)n1`, > 5000 nM.
In turn, `CCCn1c(-c2ccnc(N)n2)cc2c1CCNC2=O` displayed an IC50 of 12 nM.
Regarding `Cc1c(-c2ccncc2)[nH]c2c1C(=O)NCC2`, the 50% inhibitory concentration (IC50) was 45 nM.
`O=C1NCc2[nH]c(-c3ccncc3)cc21`: the IC50 was determined as 27 nM.
`O=C1NCCc2[nH]ccc21`: the 50% inhibitory concentration (IC50) is > 5000 nM.
On to `Nc1nccc(-c2cc3c([nH]2)CCNC3=O)n1`, for which the concentration for half-maximal inhibition (IC50) amounted to 7 nM.
The same measure, in the same setting: as for `Cn1c(-c2ccncc2)cc2c1CCNC2=O`, the figure is 404 nM.
As for `O=C1NCCc2[nH]c(-c3ccccc3)cc21`, the half-inhibitory concentration (IC50) was > 5000 nM.
In turn, `Nc1nccc(-c2cc3c(n2CCCC(F)(F)F)CCNC3=O)n1` registered an IC50 of 47 nM.
The molecule `O=C1NCCc2[nH]c(-c3ccncn3)cc21` came in with an IC50 of 20 nM.
Take `O=C(Nc1nccc(-c2cc3c([nH]2)CCNC3=O)n1)c1ccccc1`: the IC50 was 262 nM.
As to `Nc1nccc(-c2cc3c(n2CCF)CCNC3=O)n1`, inhibition was half-maximal at 3 nM (IC50).
`CCCCn1c(-c2ccnc(N)n2)cc2c1CCNC2=O` gave an IC50 of 23 nM.
Consider `Nc1nccc(-c2cc3c(n2C2CCC2)CCNC3=O)n1`, for which the IC50 came out at 14 nM.
The molecule `O=C1NCCc2c1cc(-c1ccncc1)n2CCO` displayed a half-inhibitory concentration (IC50) of 3300 nM.
`O=C1NCCc2oc(-c3ccncc3)cc21` displayed a 50% inhibitory concentration (IC50) of 201 nM.
As to `Nc1nccc(-c2cc3c(n2CC(F)(F)F)CCNC3=O)n1`, half-maximal inhibition (IC50) was put at 5 nM.
As for `Nc1nccc(-c2cc3c(n2Cc2ccccc2)CCNC3=O)n1`, the IC50 turned out to be 290 nM.
For `O=CN1CCc2[nH]c(-c3ccncc3)cc2C1=O`, half-maximal inhibition (IC50) was put at 863 nM.
For the molecule `O=C1NCCc2[nH]c(-c3ncnc4[nH]cnc34)cc21`, the IC50 is 178 nM.
Same read-out and setting: in the case of `CC(C)C(=O)Nc1nccc(-c2cc3c([nH]2)CCNC3=O)n1` it was 1400 nM; in that of `O=C1NCCc2[nH]c(-c3ccnc(NCC4CCCCC4)n3)cc21`, 655 nM.
On the same count and under the same terms, in the case of `Nc1nccc(-c2cc3c(n2-c2ccccc2)CCNC3=O)n1` it was > 5000 nM.
Still for that read-out and setting: as for `CN1CCC(n2c(-c3ccnc(N)n3)cc3c2CCNC3=O)CC1`, the figure is 120 nM; as for `CC(C)CNc1nccc(-c2cc3c([nH]2)CCNC3=O)n1`, 636 nM; as for `O=C1NCCc2[nH]c(-c3ccnc4[nH]ccc34)cc21`, 14 nM.
In the case of `O=C1NCCCc2[nH]c(-c3ccncc3)cc21`, the concentration for half-maximal inhibition (IC50) came out at 158 nM.
As to `O=C1NCCc2[nH]c(-c3ccncc3F)cc21`, the IC50 came out at 9 nM.
Take `O=C1NCCc2[nH]c3c(ccc4cnccc43)c21`: the IC50 is 2 nM.
For the molecule `CCn1c(-c2ccnc(N)n2)cc2c1CCNC2=O`, the half-inhibitory concentration (IC50) was found to be 8 nM.
The molecule `CCCNc1nccc(-c2cc3c([nH]2)CCNC3=O)n1` came in with a concentration for half-maximal inhibition (IC50) of 259 nM.
With `O=C1NCCc2[nH]c(-c3cccnc3)cc21`, the 50% inhibitory concentration (IC50) was > 5000 nM.
